This passage reports IC50 and Ki results from patent publication US7256190B2, “Thiazole compounds useful as inhibitors of protein kinase” (Vertex Pharmaceuticals Incorporated, priority 2001, dated 2007).

Structures are written as SMILES.

Format in all cases: biochemical
One assay has as its target Syk (Homo sapiens, UniProt P43405). The assay can be described thus: Syk inhibition assay (coupled enzyme assay). As to conditions: 200 μM ATP, 4 μM poly Gly-Tyr peptide, 30° C. As for the experimental part: Reactions were carried out in 100 mM HEPES pH 7.5, 10 mM MgCl2, 25 mM NaCl, 1 mM DTT and 1.5% DMSO. Final substrate .concentrations in the assay were 200 μM ATP (Sigmachemical Co.) and 4 μM poly Gly-Tyr peptide (Sigma Chemical Co.). Assays were carried out at 30° C. and 200 nM Syk. Final concentrations of the components of the coupled enzyme system were 2.5 mM phosphoenolpyruvate, 300 μM NADH, 30 μg/ml pyruvate kinase and 10 μg/ml lactate dehydrogenase.
An assay stock buffer solution was prepared containing all of the reagents listed above, with the exception of Syk, DTT and the test compound of interest. 56 μl of the test reaction was placed in a 96 well plate followed by the addition of 1 μl of 2 mM DMSO stock containing the test compound (final compound concentration 30 μM). […] Rates of reaction were obtained using a BioRad Ultramark plate reader (Hercules, Calif.) over a 5 minute read time at 30° C.
(§1) The compound numbers correspond to the compound numbers in Table 1.

A further assay has as its target GSK3-β (AA 1-420) (Homo sapiens, UniProt P49841). Description: GSK-3 inhibition assay (coupled enzyme system). The conditions noted are these: 10 μM ATP, 300 μM peptide, 60 nM GSK-3β, 30° C. As for the experimental part: Compounds were screened for their ability to inhibit GSK3-β (AA 1-420) activity using a standard coupled enzyme system (Fox et al. (1998) Protein Sci. 7, 2249). Reactions were carried out in a solution containing 100 mM HEPES (pH 7.5), 10 mM MgCl2, 25 mM NaCl, 300 μM NADH, 1 mM DTT and 1.5% DMSO. Final substrate concentrations in the assay were 10 μM ATP (Sigma Chemicals, St Louis, Mo.) and 300 μM peptide (HSSPHQS(PO3H2)EDEEE, American Peptide, Sunnyvale, Calif.). Reactions were carried out at 30° C. and 60 nM GSK-3β. Final concentrations of the components of the coupled enzyme system were 2.5 mM phosphoenolpyruvate, 300μM NADH, 30 μg/ml pyruvate kinase and 10 μg/ml lactate dehydrogenase.
An assay stock buffer solution was prepared containing all of the reagents listed above with the exception of ATP and the test compound of interest. 59 μl of the test reaction was placed in a 96 well ½-diameter plate (Corning, Corning, N.Y.) then treated with 1 μl of a 2 mM DMSO stock containing the test compound (final compound concentration 30 μM). The plate was incubated for ˜10 minutes at 30° C. then the reaction initiated by addition of 7 μl of ATP (final concentration 10 μM). Rates of reaction were obtained using a Molecular Devices Spectramax plate reader (Sunnyvale, Calif.) over a 5 minute read time at 30° C.
as §1

In the next assay the target is T1, Aurora2 (Homo sapiens, UniProt O14965).
T1 sequence (O14965 1-403): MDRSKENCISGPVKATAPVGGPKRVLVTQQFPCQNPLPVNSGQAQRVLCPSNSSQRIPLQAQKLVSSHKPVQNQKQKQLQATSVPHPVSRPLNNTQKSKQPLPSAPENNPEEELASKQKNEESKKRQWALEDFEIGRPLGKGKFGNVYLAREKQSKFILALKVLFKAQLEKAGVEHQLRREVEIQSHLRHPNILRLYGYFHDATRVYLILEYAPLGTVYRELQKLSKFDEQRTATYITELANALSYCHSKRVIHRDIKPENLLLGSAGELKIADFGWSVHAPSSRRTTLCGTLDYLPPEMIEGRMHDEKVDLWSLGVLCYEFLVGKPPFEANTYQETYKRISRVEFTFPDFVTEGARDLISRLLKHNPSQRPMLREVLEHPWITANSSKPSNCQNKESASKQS
The assay can be described thus: Aurora2 inhibition assay (coupled enzyme assay). As to conditions: 800 μM peptide LRRASLG, 70 nM Aurora2, 30° C. As for the experimental part:
Compounds are screened in the following manner for their ability to inhibit Aurora2 using a standard coupled enzyme assay (Fox et al (1998). Protein Sci 7, 2246). To an assay stock buffer solution containing 0.1M HEPES 7.5, 10 mM MgCl2, 1 mM DTT, 25 mM NaCl, 2.5 mM prosphoenolpyruvate, […], […] pyruvate kinase, […] lactate dehydrogenase, […], and 800 μM peptide (LRRASLG, American Peptide, Sunnyvale, Calif.) is added a DMSO solution of a compound of the present invention to a final concentration of 30 μM. The resulting mixture is incubated at 30° C. for 10 minutes. The reaction was initiated by the addition of 10 μL of Aurora2 stock solution to give a final concentration of 70 nM in the assay. The rates of reaction are obtained by monitoring absorbance at 340 nm over a 5 minute read time at 30° C. using a BioRad Ultramark plate reader (Hercules, Calif.). The IC50 values are determined from the rate data as a function of inhibitor concentration.
as §1

As usually defined, the IC50 is the concentration that inhibits the measured activity by half. Higher therefore signals lower potency. As usually defined, the Ki is a measure of affinity in units of concentration, obtained from inhibition or displacement. Read a low Ki as a stronger hold on the target.

Chain of GSK3-β (AA 1-420) (P49841 whole entry, the tested form may be a part): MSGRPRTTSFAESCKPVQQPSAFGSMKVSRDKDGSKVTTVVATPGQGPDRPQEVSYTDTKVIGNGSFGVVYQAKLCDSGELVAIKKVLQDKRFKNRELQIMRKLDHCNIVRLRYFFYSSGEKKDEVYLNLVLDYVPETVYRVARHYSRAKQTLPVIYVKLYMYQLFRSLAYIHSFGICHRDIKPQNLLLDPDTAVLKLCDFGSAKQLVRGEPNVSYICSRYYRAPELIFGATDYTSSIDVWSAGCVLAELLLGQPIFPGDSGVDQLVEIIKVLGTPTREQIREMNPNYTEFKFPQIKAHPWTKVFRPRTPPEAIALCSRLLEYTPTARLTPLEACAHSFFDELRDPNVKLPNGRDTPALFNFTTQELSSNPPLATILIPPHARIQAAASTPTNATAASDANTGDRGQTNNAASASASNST

On to `Clc1ccc(COc2cccc(Nc3nccc(-c4nccs4)n3)c2)cc1Cl` [Compound I-2], for which the IC50 against Syk and on Aurora2 was above 2000 nM in each case. This compound also returned a Ki on GSK3-β (AA 1-420) above 1000 nM.
As to `c1ccc(Oc2cccc(Nc3nccc(-c4nccs4)n3)c2)cc1` [Compound I-4], the IC50 on Syk and on Aurora2 was 500 to 2000 nM each time. Further, the Ki on GSK3-β (AA 1-420) was below 100 nM.
As to `CS(=O)(=O)c1ccc(COc2cccc(Nc3nccc(-c4nccs4)n3)c2)cc1` [Compound I-5], the results for the IC50 at Syk and against Aurora2 were below 500 nM and above 2000 nM, respectively. Further, on GSK3-β (AA 1-420), the Ki was below 100 nM.
With `c1ccc(COc2cccc(Nc3nccc(-c4nccs4)n3)c2)cc1` [Compound I-7, (3-Benzyloxy-phenyl)-(4-thiazol-2-yl-pyrimidin-2-yl)-amine], the IC50 against Syk is below 500 nM; on Aurora2, above 2000 nM.
On to `c1cc(Nc2nccc(-c3nccs3)n2)cc(OCc2ccncc2)c1` [Compound I-8], for which the results for the IC50 at Syk and against Aurora2 were above 2000 nM and below 500 nM, respectively. The inhibition constant (Ki) on GSK3-β (AA 1-420) is below 100 nM.
The like results for `Oc1cccc(Nc2nccc(-c3nccs3)n2)c1` [Compound I-11] were, in that order, below 500 nM, below 500 nM and below 100 nM.
Turning to `Nc1cccc(COc2cccc(Nc3nccc(-c4nccs4)n3)c2)c1` [Compound I-14], the IC50 against Syk and at Aurora2 was 500 to 2000 nM each time. This compound had a Ki at GSK3-β (AA 1-420) below 100 nM.
As for `O=[N+]([O-])c1cccc(Nc2nccc(-c3nccs3)n2)c1` [Compound I-16], the concentration for half-maximal inhibition (IC50) against Syk is 500 to 2000 nM; on Aurora2 it was below 500 nM. At GSK3-β (AA 1-420), this compound showed a Ki above 1000 nM.
The like results for `c1cc(Nc2nccc(-c3nccs3)n2)cc(OCc2ccc3c(c2)OCO3)c1` [Compound I-17] were, in that order, below 500 nM, below 500 nM and below 100 nM.
`Fc1cccc(Nc2nccc(-c3nccs3)n2)c1` [Compound I-19]: the IC50 on Syk and against Aurora2 was 500 to 2000 nM each time. This compound had a Ki at GSK3-β (AA 1-420) below 100 nM.
With `Clc1cccc(Nc2nccc(-c3nccs3)n2)c1` [Compound I-22], the IC50 at Syk and at Aurora2 was below 500 nM in each case. In addition, on GSK3-β (AA 1-420), the Ki is below 100 nM.
Regarding `c1cncc(COc2cccc(Nc3nccc(-c4nccs4)n3)c2)c1` [Compound I-23], the 50% inhibitory concentration (IC50) against Syk and at Aurora2 was below 500 nM in each case. Further, the Ki at GSK3-β (AA 1-420) is below 100 nM.
Take `COc1cccc(Nc2nccc(-c3nccs3)n2)c1` [Compound I-25]: the figures for the IC50 against Syk and on Aurora2 were below 500 nM and 500 to 2000 nM, respectively. Besides, at GSK3-β (AA 1-420), the Ki was below 100 nM.
The matching figures for `c1cc(Nc2nccc(-c3nccs3)n2)cc(OCCn2cccc2)c1` [Compound I-29]: below 500 nM, below 500 nM and below 100 nM.
In the case of `Ic1cccc(Nc2nccc(-c3nccs3)n2)c1` [Compound I-31], the IC50 against Syk and at Aurora2 was below 500 nM each time. For the same compound, on GSK3-β (AA 1-420), the Ki is below 100 nM.
Consider `Brc1cccc(Nc2nccc(-c3nccs3)n2)c1` [Compound I-34], for which the IC50 against Syk and at Aurora2 was below 500 nM in each case. The same compound gave a Ki at GSK3-β (AA 1-420) below 100 nM.
`O=[N+]([O-])c1ccccc1COc1cccc(Nc2nccc(-c3nccs3)n2)c1` [Compound I-35]: the IC50 at Syk and on Aurora2 was above 2000 nM each time. In addition, the Ki on GSK3-β (AA 1-420) was below 100 nM.
`FC(F)(F)c1cccc(Nc2nccc(-c3nccs3)n2)c1` [Compound I-37]: the IC50 against Syk was below 500 nM; against Aurora2, 500 to 2000 nM. At GSK3-β (AA 1-420), this compound had a Ki below 100 nM.
The like results for `Nc1ccccc1COc1cccc(Nc2nccc(-c3nccs3)n2)c1` [Compound I-38] were, in that order, below 500 nM, below 500 nM and below 100 nM.
The matching figures for `Fc1ccc(Nc2nccc(-c3nccs3)n2)cc1` [Compound I-43]: above 2000 nM, above 2000 nM and below 100 nM.
The compound `COc1ccccc1COc1cccc(Nc2nccc(-c3nccs3)n2)c1` [Compound I-44] had an IC50 against Syk below 500 nM. Moreover, on GSK3-β (AA 1-420), the Ki is below 100 nM.
`Clc1ccc(Nc2nccc(-c3nccs3)n2)cc1` [Compound I-46]: the IC50 against Syk and against Aurora2 was above 2000 nM in each case. Further, on GSK3-β (AA 1-420), the Ki is below 100 nM.
At Syk, `FC(F)(F)c1ccccc1COc1cccc(Nc2nccc(-c3nccs3)n2)c1` [Compound I-47] registered an IC50 above 2000 nM. Moreover, the Ki at GSK3-β (AA 1-420) was below 100 nM.
Consider `Fc1ccc(Nc2nccc(-c3nccs3)n2)cc1F` [Compound I-49], for which the IC50 against Syk is above 2000 nM; against Aurora2, 500 to 2000 nM. At GSK3-β (AA 1-420), this compound displayed a Ki below 100 nM.
On to `c1cncc(Oc2cccc(Nc3nccc(-c4nccs4)n3)c2)c1` [Compound I-50], for which the IC50 at Syk is below 500 nM; against Aurora2, 500 to 2000 nM.
Regarding `c1ccc2cc(Nc3nccc(-c4nccs4)n3)ccc2c1` [Compound I-52], the IC50 against Syk and at Aurora2 was above 2000 nM each time. The same compound had a Ki on GSK3-β (AA 1-420) below 100 nM.
On to `c1ccc(Oc2cccc(Nc3nccc(-c4nccs4)n3)c2)nc1` [Compound I-53], for which the IC50 against Syk lay in the range of 500 to 2000 nM.
Turning to `NS(=O)(=O)c1ccc(Nc2nccc(-c3nccs3)n2)cc1` [Compound I-55], the IC50 on Syk and against Aurora2 was below 500 nM in each case. The compound also yielded a Ki on GSK3-β (AA 1-420) below 100 nM.
With `c1cc(Nc2nccc(-c3nccs3)n2)cc(Oc2ccncc2)c1` [Compound I-56], the half-inhibitory concentration (IC50) against Syk and against Aurora2 was 500 to 2000 nM in each case.
Take `Fc1cc(Nc2nccc(-c3nccs3)n2)cc(F)c1F` [Compound I-58]: the IC50 at Syk and at Aurora2 was above 2000 nM throughout. Besides, the Ki on GSK3-β (AA 1-420) was below 100 nM.
As for `O=[N+]([O-])c1cccc(Oc2cccc(Nc3nccc(-c4nccs4)n3)c2)c1` [Compound I-59], the IC50 on Syk and against Aurora2 was above 2000 nM throughout.
Regarding `Clc1cccc(Cl)c1Nc1nccc(-c2nccs2)n1` [Compound I-61], the IC50 at Syk and against Aurora2 was above 2000 nM each time. The Ki on GSK3-β (AA 1-420) is above 1000 nM.
Turning to `Nc1cccc(Oc2cccc(Nc3nccc(-c4nccs4)n3)c2)c1` [Compound I-62], the IC50 is below 500 nM against Syk and 500 to 2000 nM at Aurora2.
Turning to `Fc1cccc(F)c1Nc1nccc(-c2nccs2)n1` [Compound I-64], the IC50 on Syk and against Aurora2 was above 2000 nM each time. The inhibition constant (Ki) at GSK3-β (AA 1-420) was above 1000 nM.
On to `Cc1ccc(Nc2nccc(-c3nccs3)n2)cc1` [Compound I-67], for which the IC50 at Syk and against Aurora2 was below 500 nM each time. Also, the Ki at GSK3-β (AA 1-420) fell in the range of 100 to 1000 nM.
Regarding `Cc1cc(C)cc(Nc2nccc(-c3nccs3)n2)c1` [Compound I-73], the IC50 against Syk and against Aurora2 was below 500 nM each time. For the same compound, the Ki at GSK3-β (AA 1-420) is below 100 nM.
Regarding `Cc1ccccc1COc1cccc(Nc2nccc(-c3nccs3)n2)c1` [Compound I-115], the IC50 against Syk is above 2000 nM. In addition, the Ki at GSK3-β (AA 1-420) was below 100 nM.
